The source of these data is patent publication US7235366B1 (priority 1993, dated 2007).

The target in assay [1] is T1, cloned rat μ receptor (Rattus norvegicus, UniProt P33535).
T1 construct: expressed in transfected cells; host or cells: COS-7 (transient)
As to the kind of experiment: biochemical. In kind it is binding.

In assay [2] the target is T2, mouse delta opioid receptor aspartate 95 to asparagine mutant (Mus musculus, UniProt P32300, D95N).
T2 construct: expressed in transfected cells; host or cells: COS-7
As to the kind of experiment: Binding to delta receptor mutant with aspartate 95 converted to asparagine, COS-7 cells.

For assay [3], the target named is T3, cloned mouse κ receptor (Mus musculus, UniProt P33534).
T3 construct: expressed in transfected cells
As to the kind of experiment: biochemical. In kind it is binding.

The target in assay [4] is T4, cloned mouse δ receptor (Mus musculus, UniProt P32300).
T4 construct: expressed in transfected cells
The assay can be described thus: biochemical. In kind it is binding.

The subject of assay [5] is κ/δ2eloop chimera. In kind it is binding.
In assay [6] the target is T5, MOP2 (Mus musculus, UniProt P35377).
T5 construct: expressed in transfected cells; host or cells: COS-7 (transient)
In kind it is cell-based.

Assay [7] deals with T6, H278N mutant mouse delta opioid receptor (Mus musculus, UniProt P32300, H278N).
T6 construct: expressed in transfected cells; host or cells: COS-7 (transient, pCMV6c)
As to the kind of experiment: biochemical. In kind it is binding.

For assay [8], the target named is T7, wild-type mouse delta opioid receptor (Mus musculus, UniProt P32300).
T7 construct: expressed in transfected cells; host or cells: COS-7 (transient, pCMV6c)
As to the kind of experiment: biochemical. In kind it is binding.

Assay [9] deals with T8, D128N mutant mouse delta opioid receptor (Mus musculus, UniProt P32300, D128N).
T8 construct: expressed in transfected cells; host or cells: COS-7 (transient, pCMV6c)
As to the kind of experiment: biochemical. In kind it is binding.

For assay [10], the target named is T5, MOP2. In kind it is binding.
Assay [11] deals with T9, cloned human μ opioid receptor (Homo sapiens, UniProt P35372).
T9 construct: This fragment includes the entire coding region of the human μ opioid receptor; expressed in transfected cells; host or cells: COS-7 (transient, pcDNA3)
In kind it is binding.

The mark [12] stands for this setting: read-out: Binding potencies (Ki-nM) μ RECEPTOR [^3H] DAMGO.
The mark [13] stands for this setting: read-out: Binding potencies (Ki-nM) κ RECEPTOR [^3H] U-69, 593.
The mark [14] stands for this setting: read-out: Binding potencies (Ki-nM) δ RECEPTOR [^3H] naltrindole.
[15] abbreviates: Binding potencies (Ki-nM) μ RECEPTOR [^3H] DAMGO.

The term Ki denotes the dissociation constant of the complex between target and ligand, obtained from inhibition or displacement.

Where two headings read alike, the source gives them in different places. Residues, ends and D or L forms follow the SMILES beside them. Where only a bound is given, the exact number is not on record here.

T5 sequence (P35377 whole entry): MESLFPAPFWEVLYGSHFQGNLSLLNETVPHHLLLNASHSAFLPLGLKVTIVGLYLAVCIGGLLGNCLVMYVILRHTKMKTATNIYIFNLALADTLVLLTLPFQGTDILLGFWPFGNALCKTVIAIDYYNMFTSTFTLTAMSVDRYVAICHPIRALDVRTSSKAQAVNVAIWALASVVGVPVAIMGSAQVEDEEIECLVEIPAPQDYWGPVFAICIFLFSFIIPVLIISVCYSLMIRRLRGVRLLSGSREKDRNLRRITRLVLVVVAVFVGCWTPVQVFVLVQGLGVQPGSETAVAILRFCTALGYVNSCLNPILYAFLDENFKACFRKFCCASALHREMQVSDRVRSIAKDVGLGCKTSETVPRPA
T1 sequence (P33535 whole entry): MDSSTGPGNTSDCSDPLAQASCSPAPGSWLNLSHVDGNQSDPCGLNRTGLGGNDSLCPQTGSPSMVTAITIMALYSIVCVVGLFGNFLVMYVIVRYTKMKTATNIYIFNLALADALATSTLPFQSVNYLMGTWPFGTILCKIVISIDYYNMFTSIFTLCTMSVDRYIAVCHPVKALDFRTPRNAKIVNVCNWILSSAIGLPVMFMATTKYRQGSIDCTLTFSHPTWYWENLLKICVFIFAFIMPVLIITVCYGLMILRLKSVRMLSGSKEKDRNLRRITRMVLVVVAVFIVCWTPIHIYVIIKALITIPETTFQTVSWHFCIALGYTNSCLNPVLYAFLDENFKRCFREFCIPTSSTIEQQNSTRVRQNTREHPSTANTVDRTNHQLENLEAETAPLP
T8 sequence (P32300 whole entry D128N): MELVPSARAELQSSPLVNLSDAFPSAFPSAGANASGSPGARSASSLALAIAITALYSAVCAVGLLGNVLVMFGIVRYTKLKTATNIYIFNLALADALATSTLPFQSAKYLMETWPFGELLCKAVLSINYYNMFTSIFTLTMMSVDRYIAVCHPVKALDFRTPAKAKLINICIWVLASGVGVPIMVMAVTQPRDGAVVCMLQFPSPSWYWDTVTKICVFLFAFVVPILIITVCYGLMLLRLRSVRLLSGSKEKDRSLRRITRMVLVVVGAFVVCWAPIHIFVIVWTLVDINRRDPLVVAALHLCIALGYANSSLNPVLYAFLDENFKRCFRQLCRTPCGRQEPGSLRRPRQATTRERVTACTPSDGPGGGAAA
T6 sequence (P32300 whole entry H278N): as the sequence (P32300 whole entry D128N) above, with N128D, H278N counted along it
T4 sequence (P32300 whole entry): as the sequence (P32300 whole entry D128N) above, with N128D counted along it
T7 sequence (P32300 whole entry): as the sequence (P32300 whole entry D128N) above, with N128D counted along it
T3 sequence (P33534 whole entry): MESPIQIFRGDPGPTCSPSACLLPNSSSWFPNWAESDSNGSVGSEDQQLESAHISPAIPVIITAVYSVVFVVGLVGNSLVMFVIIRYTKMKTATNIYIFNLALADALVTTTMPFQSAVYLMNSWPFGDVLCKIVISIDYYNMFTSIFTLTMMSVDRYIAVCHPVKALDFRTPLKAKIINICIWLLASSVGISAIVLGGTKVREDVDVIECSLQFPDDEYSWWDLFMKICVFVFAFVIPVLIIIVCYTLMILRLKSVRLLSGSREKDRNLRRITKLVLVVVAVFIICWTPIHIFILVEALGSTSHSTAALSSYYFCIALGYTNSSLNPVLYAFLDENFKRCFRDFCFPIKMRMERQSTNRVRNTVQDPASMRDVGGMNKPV
T2 sequence (P32300 whole entry D95N): as the sequence (P32300 whole entry D128N) above, with D95N, N128D counted along it
T9 sequence (P35372 whole entry, the tested form may be a part): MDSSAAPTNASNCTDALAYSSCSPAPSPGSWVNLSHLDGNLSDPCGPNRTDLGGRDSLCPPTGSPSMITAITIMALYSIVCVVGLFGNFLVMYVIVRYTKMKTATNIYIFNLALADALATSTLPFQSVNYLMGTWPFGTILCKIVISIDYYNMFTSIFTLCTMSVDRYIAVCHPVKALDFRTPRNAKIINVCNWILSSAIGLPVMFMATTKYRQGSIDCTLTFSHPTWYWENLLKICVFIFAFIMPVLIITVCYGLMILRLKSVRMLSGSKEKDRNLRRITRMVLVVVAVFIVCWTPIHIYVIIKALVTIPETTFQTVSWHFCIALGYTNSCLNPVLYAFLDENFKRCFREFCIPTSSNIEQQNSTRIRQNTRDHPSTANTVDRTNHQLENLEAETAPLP

For `O=C1/C(=C/c2ccccc2)C[C@@]2(O)[C@H]3Cc4ccc(O)c5c4[C@@]2(CCN3CC2CC2)[C@H]1O5` [BNTX, 7-Benyllidenenaltrexone], the Ki in [1] (setting [12]) came out at 18 nM; in assay [3] (setting [13]) it was 55 nM; in [4] (setting [14]), 0.66 nM. Also, the “Affinity of aspartate 95 mutant and wild-type delta receptors compared” value in [2] is given as “similar”.

For `C[C@@H](O)[C@H](NC(=O)[C@H]1NC(=O)[C@H]([C@@H](C)O)NC(=O)[C@H](CCCN)NC(=O)[C@@H](Cc2c[nH]c3ccccc23)NC(=O)[C@H](Cc2ccc(O)cc2)NC(=O)[C@@H](NC(=O)[C@H](N)Cc2ccccc2)CSSC1(C)C)C(N)=O` [CTOP, D-Phe-Cys-Tyr-D-Trp-Orn-Thr-Pen-Thr-NH2], the Ki in assay [3] and in assay [4] was above 1000 nM in each case.

With `CC(C)C[C@H](NC(=O)[C@H](Cc1ccccc1)NC(=O)CNC(=O)[C@@H](CO)NC(=O)[C@@H](N)Cc1ccc(O)cc1)C(=O)N[C@H](C(=O)O)[C@@H](C)O` [DSLET, [D-Ser^2, Leu^5]enkephalin-Thr^6], affinity in assay [1] (setting [15]) was put at a Ki of 39 nM.

With `CN1CC[C@@]23CCCC[C@@H]2[C@@H]1Cc1ccc(O)cc13` [Dextrorphan], the Ki in assay [3] and in [4] was above 1000 nM each time.

For the compound `CC[C@H](C)[C@H](NC(=O)[C@H](CCCNC(=N)N)NC(=O)[C@H](CCCNC(=N)N)NC(=O)[C@H](CC(C)C)NC(=O)[C@H](Cc1ccccc1)NC(=O)CNC(=O)CNC(=O)[C@@H](N)Cc1ccc(O)cc1)C(=O)N[C@@H](CCCNC(=N)N)C(=O)N1CCC[C@H]1C(=O)N[C@@H](CCCCN)C(=O)N[C@@H](CC(C)C)C(=O)N[C@@H](CCCCN)C(=O)N[C@@H](Cc1c[nH]c2ccccc12)C(=O)N[C@@H](CC(=O)O)C(=O)N[C@@H](CC(N)=O)C(=O)N[C@@H](CCC(N)=O)C(=O)O` [Dynorphin], the “Binding to the κ/δ2eloop chimera” value in assay [5] was “did not bind”.

Take `CC[C@]12CCN(CC3CC3)[C@H](C(=O)c3ccc(O)cc31)[C@@H]2C` [Ethylketocyclazocine]: the Ki came to 3.1 nM in assay [1] and 101 nM in assay [4]. In assay [6], the “Effect on forskolin-stimulated cAMP formation, MOP2” value (shortened to “Effect”) was “no effect”.

As for `CN(C(=O)Cc1ccc(Cl)c(Cl)c1)C(CN1CCCC1)c1cccc(OCC(=O)O)c1` (stereo not shown) [ICI 204, 448], the Ki in assay [1] (setting [12]) was above 1000 nM; in [3] (setting [13]), 0.71 nM; in [4] (setting [14]), above 1000 nM.

In the case of `CN1CC[C@]23CCCC[C@H]2[C@H]1Cc1ccc(O)cc13` [Levorphanol], the Ki worked out at 2.8 nM in assay [7]; 6.5 nM in [3]; 187 nM in [8]; 4380 nM in [9]; 5 nM in [4]. The “Effect” value in assay [6] is “no effect”.

Turning to `Oc1ccc2c3c1O[C@H]1c4oc5ccccc5c4C[C@@]4(O)[C@@H](C2)N(CC2CC2)CC[C@]314` [NTB], the Ki in assay [7] (read-out: Potencies of Antagonist binding, H278N mutant (Ki values in nM)) stood at 0.03 nM; in assay [1] (setting [12]), 12 nM; in assay [3] (setting [13]), 13 nM; in assay [8] (read-out: Potencies of Antagonist binding, Wild-type (Ki values in nM)), 0.04 nM; in assay [9] (read-out: Potencies of Antagonist binding, D128N mutant (Ki values in nM)), 0.07 nM; in [4] (setting [14]), 0.013 nM. For the same compound, the “Affinity of aspartate 95 mutant and wild-type delta receptors compared” value in [2] is recorded as “similar”.

Take `CN1CC[C@]23c4c5ccc(O)c4O[C@H]2C(=O)C2(Cc4ccccc4C2)C[C@@]3(O)[C@H]1C5` [SIOM, 7-spiroindino-oxymorphone]: the Ki in assay [7] (read-out: Potencies of Agonists to Bind, H278N mutant (Ki values in nM)) is 1.8 nM; in assay [1] (setting [12]) it was 33 nM; in [3] (setting [13]), above 1000 nM; in assay [8] (read-out: Potencies of Agonists to Bind, Wild-type (Ki values in nM)), 46 nM; in [9] (read-out: Potencies of Agonists to Bind, D128N mutant (Ki values in nM)), 1220 nM.

Consider `C[C@@H](NC(=O)[C@@H](N)Cc1ccc(O)cc1)C(=O)NCC(=O)N(C)[C@@H](Cc1ccccc1)C(=O)NCCO` [[^3H]DAMGO], for which the “Specific binding of radioligand to MOP2” value in assay [10] is recorded as “did not bind specifically”.

Take `CC(C)=CCN1CCC2(C)c3cc(O)ccc3CC1C2C` (stereo not shown) [^3H-pentazocine]: the “Specific binding of radioligand to MOP2” value in assay [10] was “did not bind specifically”.

Regarding `COc1ccc2c3c1O[C@H]1[C@@H](O)C=C[C@H]4[C@@H](C2)N(C)CC[C@@]341` [codeine], in assay [6], the “Effect” value is reported as “no effect”. The Ki in assay [3] and in assay [4] was above 1000 nM each time.

As to `CC[C@H](C)[C@H](NC(=O)[C@H](C)NC(=O)[C@H](CC(N)=O)NC(=O)[C@H](CCCCN)NC(=O)[C@H](Cc1ccccc1)NC(=O)[C@H](CC(C)C)NC(=O)[C@@H](NC(=O)[C@@H](NC(=O)[C@H](CC(C)C)NC(=O)[C@@H]1CCCN1C(=O)[C@@H](NC(=O)[C@H](CCC(N)=O)NC(=O)[C@H](CO)NC(=O)[C@H](CCCCN)NC(=O)[C@H](CCC(=O)O)NC(=O)[C@H](CO)NC(=O)[C@@H](NC(=O)[C@H](CCSC)NC(=O)[C@H](Cc1ccccc1)NC(=O)CNC(=O)CN)[C@@H](C)O)[C@@H](C)O)C(C)C)[C@@H](C)O)C(=O)N[C@H](C(=O)N[C@@H](CCCCN)C(=O)N[C@@H](CC(N)=O)C(=O)N[C@@H](C)C(=O)N[C@@H](Cc1ccc(O)cc1)C(=O)N[C@@H](CCCCN)C(=O)N[C@@H](CCCCN)C(=O)NCC(=O)N[C@@H](CCC(=O)O)C(=O)O)[C@@H](C)CC` [des-Tyr^1-β-endorphin] (H-GGFMTSEKSQTPLVTLFKNAIIKNAYKKGE-OH; N-terminus and C-terminus assumed), the Ki in assay [1] (setting [12]), in assay [3] (setting [13]) and in assay [4] (setting [14]) was above 1000 nM throughout.

With `CCC(=O)C(CC(C)N(C)C)(c1ccccc1)c1ccccc1` (stereo not shown) [methadone], the “Effect” value in assay [6] was “no effect”.

`NC(=O)[C@@H]1CCCN1C(=O)[C@H](Cc1ccccc1)NC(=O)[C@@H]1CCCN1C(=O)[C@@H](N)Cc1ccc(O)cc1` [morphiceptin] (H-YPFP-NH2): the Ki was 10 to 100 nM in assay [1] (Affinities for the cloned μ receptor), 56 nM in assay [1] (setting [15]), above 1000 nM in [3] and above 1000 nM in [4].

`CN1CC[C@]23c4c5ccc(O)c4O[C@H]2[C@@H](O)C=C[C@H]3[C@H]1C5` [morphine]: in assay [6], the “Effect” value is given as “no effect”.

For `C=CCN1CC[C@]23c4c5ccc(O)c4O[C@H]2[C@@H](O)C=C[C@H]3[C@H]1C5` [nalorphine], the Ki in assay [1] is 0.97 nM; in [3] it was 1.1 nM.

`Oc1ccc2c3c1O[C@H]1c4[nH]c5c(c4C[C@@]4(O)[C@@H](C2)N(CC2CC2)CC[C@]314)C[C@@]1(O)[C@H]2Cc3ccc(O)c4c3[C@@]1(CCN2CC1CC1)[C@H]5O4` [nor-BNI, nor-binaltorphimine] yielded a Ki in [3] of 0.027 nM.

With `CC(C)=CCN1CCC2(C)c3cc(O)ccc3CC1C2C` (stereo not shown) [pentazocine], the figures for the Ki in assay [1] and in assay [4] were 5.7 nM and 31 nM, respectively.

Turning to `COC(=O)/C=C/C(=O)N[C@@H]1CC[C@@]2(O)[C@H]3Cc4ccc(O)c5c4[C@@]2(CCN3CC2CC2)[C@H]1O5` [β-FNA, β-funaltrexamine], the Ki came to 0.33 nM in [1] (setting [12]), 2.8 nM in assay [3] (setting [13]), 0.29 nM in [11] (read-out: Binding potencies (Ki-nM) for the cloned human μ opioid receptor [^3H] DAMGO) and 48 nM in assay [4] (setting [14]).

Turning to D-Ala^2-deltorphin II, the “Binding to the cloned human receptor (inhibition of [3H]DAMGO binding), words” value in [11] is “did not bind”.

Regarding Dynorphin A (1–8), the “Binding to the κ/δ2eloop chimera” value in assay [5] was “did not bind”.

Turning to Dynorphin A (1–17), in [5], the “Binding to the κ/δ2eloop chimera” value is “did not bind”.

Turning to β-Endorphin (human), the “Effect” value in [6] is “no effect”.
